The values below come from PubChem BioAssay (NCI).

Test systems include A498 renal; RPMI-8226 leukemia; NCI-H460 lung; MDA-MB-435; OVCAR-8 ovarian; HOP-62 NSCLC; HCT-15 colon; SNB-19 CNS; NCI-H23 lung; DU-145 prostate.
Common to all, as to test: NCI tumour cell line growth inhibition, 48 h

SMILES strings stand for the structures.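 96-well plates; 48 h exposure; 5 concentrations. Endpoints by linear interpolation between flanking doses. Not reached: highest tested concentration assigned. Here, GI50 denotes the concentration required for 50% inhibition of growth. The concentration for full growth arrest is given as TGI.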

In the case of `O=C(/C=C/c1cccs1)c1ccc(Nc2nc(Nc3ccc(F)cc3)nc(Nc3ccc(F)cc3)n2)cc1`, the GI50 in the assay on A498 renal was 9.24 µM; in the assay with RPMI-8226 leukemia, 20.9 µM; in the assay with NCI-H460 lung it was 20.4 µM; in the assay on MDA-MB-435 it was 24.5 µM; with OVCAR-8 ovarian it was 21.7 µM; in the assay with HOP-62 NSCLC it was more than 100 µM. For the same compound, the GI50 was 37.4 µM in the assay with HCT-15 colon, 34.1 µM in the assay with SNB-19 CNS, 24.2 µM in the assay on NCI-H23 lung and 52.7 µM in the assay with DU-145 prostate. Moreover, the TGI in the assay with A498 renal was more than 100 µM; in the assay with RPMI-8226 leukemia, more than 100 µM; in the assay on NCI-H460 lung, more than 100 µM; in the assay with MDA-MB-435, 67.6 µM; with OVCAR-8 ovarian, 51.2 µM; in the assay on HOP-62 NSCLC, more than 100 µM. In addition, the TGI with HCT-15 colon is more than 100 µM; in the assay on SNB-19 CNS it was more than 100 µM; with NCI-H23 lung, 71.2 µM; in the assay with DU-145 prostate it was more than 100 µM.

As to `COC1(O)C(=O)c2ccccc2OC1(OC)c1ccccc1` (stereo unspecified), the TGI with A498 renal, in the assay on RPMI-8226 leukemia, with NCI-H460 lung, in the assay with MDA-MB-435, in the assay on OVCAR-8 ovarian and in the assay with HOP-62 NSCLC was more than 100 µM in each case. Besides, the TGI in the assay on HCT-15 colon, in the assay on SNB-19 CNS, in the assay with NCI-H23 lung and with DU-145 prostate was more than 100 µM each time.

Consider `COc1cc2c3c(n(CCCNCC(OC)OC)c(=O)c2cc1OC)-c1cc2c(cc1C3=O)OCO2`, for which the GI50 in the assay on A498 renal was 14 µM; in the assay on RPMI-8226 leukemia it was less than 0.01 µM; with NCI-H460 lung, 0.0972 µM; with MDA-MB-435 it was 10.4 µM; in the assay with OVCAR-8 ovarian, 8.31 µM; in the assay on HOP-62 NSCLC, 0.126 µM. Also, the GI50 in the assay with HCT-15 colon is 17.3 µM; in the assay on SNB-19 CNS it was 10.2 µM; in the assay on NCI-H23 lung, 1.84 µM; with DU-145 prostate it was 0.399 µM. Besides, the TGI in the assay on A498 renal stood at 33.9 µM; with RPMI-8226 leukemia, 0.197 µM; in the assay on NCI-H460 lung it was 20.5 µM; with MDA-MB-435, 97 µM; in the assay with OVCAR-8 ovarian, 38.4 µM; with HOP-62 NSCLC it was 4.66 µM. Moreover, the TGI with HCT-15 colon was more than 100 µM; in the assay on SNB-19 CNS, more than 100 µM; in the assay with NCI-H23 lung, 29.9 µM; in the assay on DU-145 prostate, 13.7 µM.

For the compound `Cc1cc(NC(=O)NC(=O)c2ccccc2N)ccc1Oc1ncc(Br)cn1`, the TGI is 0.751 µM in the assay with A498 renal; more than 100 µM in the assay with RPMI-8226 leukemia; 14.3 µM in the assay with NCI-H460 lung; less than 0.0108 µM in the assay with MDA-MB-435; more than 46.1 µM in the assay on OVCAR-8 ovarian; 31.2 µM in the assay on HOP-62 NSCLC. Besides, the TGI in the assay with HCT-15 colon is 8.31 µM; in the assay with SNB-19 CNS, 38.5 µM; with NCI-H23 lung it was 0.575 µM; in the assay on DU-145 prostate it was more than 4.64 µM.

As to `O=C1/C(=C/c2ccc([N+](=O)[O-])o2)Oc2ccc(Br)cc21`, the GI50 in the assay on A498 renal is 15.9 µM; in the assay on RPMI-8226 leukemia it was 2.32 µM; in the assay with NCI-H460 lung, 10.6 µM; in the assay on MDA-MB-435 it was 1.9 µM; in the assay on OVCAR-8 ovarian it was 3.01 µM; in the assay with HOP-62 NSCLC, 15 µM. The GI50 with HCT-15 colon is 2.62 µM; in the assay on SNB-19 CNS, 16.1 µM; in the assay with NCI-H23 lung, 6.76 µM; in the assay on DU-145 prostate it was 9.31 µM. The TGI was 30.1 µM in the assay on A498 renal; 6.03 µM with RPMI-8226 leukemia; 24.2 µM in the assay on NCI-H460 lung; 4.03 µM in the assay on MDA-MB-435; 9.32 µM in the assay with OVCAR-8 ovarian; 34.4 µM in the assay on HOP-62 NSCLC. Besides, the TGI is 8.36 µM in the assay with HCT-15 colon, 30 µM in the assay on SNB-19 CNS, 23.1 µM in the assay on NCI-H23 lung and 21.1 µM in the assay with DU-145 prostate.

With `NC(=O)c1cc([N+](=O)[O-])c(Cl)c([N+](=O)[O-])c1`, the GI50 was 13.8 µM in the assay on A498 renal; 2.32 µM with RPMI-8226 leukemia; 15.7 µM with NCI-H460 lung; 5.99 µM in the assay with MDA-MB-435; 1.87 µM with OVCAR-8 ovarian; 5.49 µM in the assay on HOP-62 NSCLC. For the same compound, the GI50 is 1.98 µM in the assay on HCT-15 colon, 15.3 µM in the assay with SNB-19 CNS, 2.78 µM with NCI-H23 lung and 2.15 µM with DU-145 prostate. Besides, the TGI was found to be 26.8 µM in the assay with A498 renal; 5.7 µM in the assay on RPMI-8226 leukemia; 38.2 µM in the assay on NCI-H460 lung; 19.2 µM in the assay on MDA-MB-435; 3.63 µM in the assay with OVCAR-8 ovarian; 17.8 µM with HOP-62 NSCLC. The TGI stood at 3.92 µM in the assay on HCT-15 colon, 29.5 µM in the assay on SNB-19 CNS, 8.32 µM in the assay on NCI-H23 lung and 3.92 µM with DU-145 prostate.

With `Cc1ccc2c(c1C)-c1c(ccc(C)c1C)C(=O)C2=O`, the TGI with A498 renal worked out at 4.35 µM; in the assay on RPMI-8226 leukemia it was 0.559 µM; with NCI-H460 lung it was 3.4 µM; with MDA-MB-435 it was 0.619 µM; in the assay with OVCAR-8 ovarian it was 0.905 µM; in the assay with HOP-62 NSCLC it was 9.32 µM. Moreover, the TGI is 11 µM in the assay with HCT-15 colon, 23.8 µM in the assay with SNB-19 CNS, 2.81 µM in the assay on NCI-H23 lung and 3.41 µM in the assay on DU-145 prostate.

As to `C=C(C)C(=O)OC1CC2=CC(CC3(C)OC3C3OC(=O)C(=C)C13)OC2=O` (stereo unspecified), the TGI is 30.2 µM in the assay on A498 renal; 2.75 µM in the assay on RPMI-8226 leukemia; 35.1 µM with NCI-H460 lung; 30.2 µM in the assay with MDA-MB-435; 18.1 µM with OVCAR-8 ovarian; 41.9 µM in the assay on HOP-62 NSCLC. For the same compound, the TGI was found to be 20.2 µM with HCT-15 colon, 33.9 µM with SNB-19 CNS, 30.9 µM with NCI-H23 lung and 51.8 µM in the assay on DU-145 prostate. Further, in the assay with RPMI-8226 leukemia, the GI50 was 0.865 µM.

With `CN(C)c1ccc(-c2cc(-c3ccc(Nc4nc(Nc5ccccc5)nc(Nc5ccc(Cl)cc5)n4)cc3)nc(N)n2)cc1`, the GI50 in the assay on A498 renal is 4.63 µM; in the assay with RPMI-8226 leukemia, 3.32 µM; in the assay with NCI-H460 lung, 3.71 µM; in the assay on MDA-MB-435 it was 4.83 µM; in the assay on OVCAR-8 ovarian, 5.24 µM; in the assay on HOP-62 NSCLC it was 8.01 µM. In addition, the GI50 was 4.26 µM in the assay with HCT-15 colon, 13.5 µM in the assay on SNB-19 CNS, 8.47 µM in the assay with NCI-H23 lung and 8.09 µM with DU-145 prostate. In addition, the TGI in the assay on A498 renal is 20.1 µM; with RPMI-8226 leukemia, 20 µM; in the assay with NCI-H460 lung, 14.1 µM; in the assay with MDA-MB-435, 74.9 µM; in the assay on OVCAR-8 ovarian it was more than 100 µM; with HOP-62 NSCLC, 42.4 µM. Besides, the TGI is more than 100 µM in the assay on HCT-15 colon, 69.2 µM in the assay on SNB-19 CNS, 53.5 µM in the assay on NCI-H23 lung and 21.4 µM with DU-145 prostate.
